Values quoted from earlier work in publication PMC11406440 (Food and chemical toxicology : an international journal …, 2024).
Like-named read-outs stand apart in the source and are kept apart here.

Assays:
[1] = test system: male rats; conditions: 3 and 10 mg/kg/d; ref Butenhoff et al., 2009; cited from earlier work
[2] = test system: mice; conditions: dermal exposure; ref Weatherly et al., 2021, 2023; cited from earlier work
[3] = 5% dermal exposure, same conditions; ref Weatherly et al., 2023; cited from earlier work
[4] = ex vivo mouse skin; ref Franko et al., 2012; cited from earlier work
[5] = test system: IgM response to SRBC; conditions: cited from earlier work
[6] = 4-day dermal exposure, ref Franko et al., 2012, cited from earlier work
[7] = ex vivo human full-thickness skin; ref Franko et al., 2012; cited from earlier work
[8] = ref ATSDR, 2021; cited from earlier work

Compound | Cholesterol [2] | Glucose levels [2] | Average serum concentration [3] [µg/mL] | Average urine concentration [3] [µg/mL] | also measured
O=S(=O)([O-])C(F)(F)C(F)(F)C(F)(F)C(F)(F)C(F)(F)C(F)(F)F.[K+] [K^+PFHxS, PFHxS potassium salt] |  |  |  |  | Liver weight [1]: increase
O=C(O)C(F)(F)C(F)(F)C(F)(F)F [PFBA, heptafluorobutyric acid] | increased | increased |  |  | 
O=C(O)C(F)(F)C(F)(F)C(F)(F)C(F)(F)C(F)(F)C(F)(F)F [PFHpA, perfluoroheptanoic acid] | no effect | increased | 137 | 1200 | 
O=C(O)C(F)(F)C(F)(F)C(F)(F)C(F)(F)C(F)(F)F [PFHxA, perfluorohexanoic acid] | no effect | increased | 4.8 | 1700 | 
O=C(O)C(F)(F)C(F)(F)C(F)(F)C(F)(F)C(F)(F)C(F)(F)C(F)(F)F [PFOA, perfluorooctanoic acid] |  |  |  |  | Total absorbable fraction [4]: 50%; SRBC IgM antibody titers ([5]; 15 days, 3.75–30 mg/kg via drinking water, ref Dewitt et al., 2008): reduce; IgM response to SRBC ([5]; dermal exposure, ref Shane et al., 2020): suppression; Serum PFOA level ([6]; 0.5% PFOA): 152 ± 14 µg/mL; Serum PFOA level ([6]; 2% PFOA): 226 ± 14 µg/mL; Total absorbable fraction [7]: 69%; Half-life in humans [8]: 2.1–10.1 years
O=C(O)C(F)(F)C(F)(F)C(F)(F)C(F)(F)F [PFPeA, perfluoropentanoic acid] | no effect | increased |  |  | 
